Among the data in patent US11345703B2, “Substituted pyrazolo[1,5-a]pyrimidine macrocyclic compound” (SHENZHEN TARGETRX, INC., priority 2018, dated 2022) are microsomal CLint, half-life and IC50 values, retold here.

Data set [1] is described as follows: Metabolic stability, human liver microsome test. It is filed as in vitro ADME. To be noted: liver microsomes, pH 7.4, 1 μM compound, 0.5 mg/mL protein, 37° C.; for half-life at 1 μM: read-out: human liver microsome test t1/2(min). The method, then:
(§1) Microsome tests: human liver microsomes: 0.5 mg/mL, Xenotech; rat liver microsomes: 0.5 mg/mL, Xenotech; coenzyme (NADPH/NADH): 1 mM, Sigma Life Science; magnesium chloride: 5 mM, 100 mM phosphate buffer agent (pH 7.4).
(§2) Preparation of the stock solution: A certain amount of the powder of the example compounds was accurately weighed and dissolved to 5 mM with DMSO.
(§3) Preparation of phosphate buffer (100 mM, pH 7.4): 150 mL of pre-prepared 0.5 M potassium dihydrogen phosphate solution was mixed with 700 mL of pre-prepared 0.5 M dipotassium hydrogen phosphate solution, and the pH of the mixture was adjusted with 0.5 M dipotassium hydrogen phosphate solution to 7.4. It was diluted 5 times with ultrapure water before use, and magnesium chloride was added to obtain a phosphate buffer (100 mM) containing 100 mM potassium phosphate, 3.3 mM magnesium chloride, and a pH of 7.4.
(§4) A solution of NADPH regeneration system (containing 6.5 mM NADP, 16.5 mM G-6-P, 3 U/mL G-6-P D, 3.3 mM magnesium chloride) was prepared and placed on wet ice before use.
(§5) Preparation of stop solution: acetonitrile solution containing 50 ng/mL propranolol hydrochloride and 200 ng/mL tolbutamide (internal standard). 25057.5 μL of phosphate buffer (pH 7.4) was taken into a 50 mL centrifuge tube, 812.5 μL of human liver microsomes was added respectively, and mixed uniformly to obtain a liver microsome dilution with a protein concentration of 0.625 mg/mL. 25057.5 μL of phosphate buffer (pH 7.4) was taken into a 50 mL centrifuge tube, and 812.5 μL of SD rat liver microsomes was added respectively, and mixed uniformly to obtain a liver microsome dilution with a protein concentration of 0.625 mg/mL.
(§6) Incubation of the sample: The stock solutions of the corresponding compounds were diluted to 0.25 mM as working solutions with an aqueous solution containing 70% acetonitrile before use. 398 μL of human liver microsome or rat liver microsome dilutions were added to 96-well incubation plates (N=2), and 2 μL of 0.25 mM working solutions were added and mixed uniformly, respectively.
(§7) Determination of metabolic stability: 300 μL of pre-cooled stop solution was added to each well of a 96-well deep well plate, which was placed on ice as a stop plate. The 96-well incubation plate and the NADPH regeneration system were placed in a 37° C. water bath, shaken at 100 rpm, and pre-incubated for 5 min. 80 μL of the incubation solution was removed from each well of the incubation plate, added to the stop plate, and mixed uniformly, and 20 μL of the NADPH regeneration system solution was supplemented as a sample at 0 min. Then, 80 μL of the NADPH regeneration system solution was added to each well of the incubation plate to start the reaction and the timing was started. […] 100 μL of the reaction solution was removed at 10, 30, and 90 min of the reaction, respectively, and added to the stop plate, and the reaction was terminated by vortexing for 3 min. The stop plate was centrifuged at 5000×g for 10 min at 4° C. 100 μL of the supernatant was removed into a 96-well plate to which 100 μL of distilled water was previously added, mixed uniformly, and sample analysis was performed by LC-MS/MS.
(§8) Data analysis: The peak areas of the corresponding compounds and the internal standard were detected by LC-MS/MS system, and the ratios of the peak areas of the compounds to the internal standard were calculated.
(§9) The metabolic stability in human and rat liver microsomes was evaluated by simultaneously testing and comparing the compounds of the present invention and the compound without deuteration. The non-deuterated compound LOXO-195 was used as a control.
On the technique in general: Liver microsomes are a subcellular fraction often used to study metabolism.

A short description of data set [2]: Metabolic stability, rat liver microsome test. Format: in vitro ADME. The settings on record: SD, liver microsomes, pH 7.4, 1 μM compound, 0.5 mg/mL protein, 37° C.; for half-life at 1 μM: read-out: rat liver microsome test t1/2(min). How it is done:
as §1, §2, §3, §4, §5, §6, §7, §8, §9

The test system of data set [3] is KM12 (TPM3-TRKA) cells. As to the kind of experiment: Cytotoxicity test, inhibition of KM12 cell proliferation (CellTiter-Glo). Format: cell-based. To be noted: Homo sapiens, 72 h, 3 days incubation. How it is done: The inhibitory effect of the example compounds on the activity of KM12 (TPM3-TRKA) cells was examined.
Experimental methods: 1. Preparation of cell plates—KM12 cells were separately seeded in 96-well plates, and 8 ng/ml IL-3 was added to KM12 cells, and the cell plates were incubated in a carbon dioxide incubator overnight. 2. The test compound was dissolved in DMSO and subjected to a 3.16-fold gradient dilution with 9 compound concentrations in triplicate. 3. Compound Treatment of Cells—The compounds were transferred to cell plates at a starting concentration of 10 μM. The cell plates were incubated in a carbon dioxide incubator for 3 days. 4. Detection—The CellTiter-Glo reagent was added to the cell plate and incubated for 30 minutes at room temperature to stabilize the luminescence signal. Readings were performed using a PerkinElmer Envision multi-label analyzer.

As a reminder, the microsomal CLint is the rate of metabolic loss divided by the concentration. With `[2H]C([2H])([2H])C1([2H])CCc2ncc(F)cc2C2CCCN2c2ccn3ncc(c3n2)C(=O)N1` (racemic) [Compound 70, 9-fluoro-15-(methyl-d3)-2,11,16,20,21,24-hexaazapentocyclo[16.5.2.0^2,6,0^7,12,0^21,25]pentacosane-1(24),7,9,11,18(25),19,22-heptaene-17-one-15-d], in data set [1], the microsomal CLint at 1 μM turned out to be 78.7 µL/min/mg and the half-life at 1 μM came out at 17.6 min. In data set [2], the microsomal CLint at 1 μM was 35.5 µL/min/mg and the half-life at 1 μM is 39.1 min.

As for `[2H]C1([2H])c2ncc(F)cc2C2CCCN2c2ccn3ncc(c3n2)C(=O)N[C@H](C)C1([2H])[2H]` (stereo partly drawn) [Compound 13, (15R)-9-fluoro-15-methyl-2,11,16,20,21,24-hexaazapentocyclo[16.5.2.0^2,6,0^7,12,0^21,25]pentacosane-1(24),7,9,11,18(25),19,22-heptaene-17-one-13,13,14,14-d4], in data set [1], the intrinsic metabolic clearance (microsomal CLint) at 1 μM was 38.5 µL/min/mg and the half-life at 1 μM turned out to be 36 min. In addition, in data set [2], the microsomal CLint at 1 μM turned out to be 23.3 µL/min/mg and the half-life at 1 μM worked out at 59.4 min.

For `[2H]C1([2H])c2ncc(F)cc2[C@H]2CCCN2c2ccn3ncc(c3n2)C(=O)N[C@H](C)C1([2H])[2H]` [Compound L-1-a, (6R,15R)-9-fluoro-15-methyl-2,11,16,20,21,24-hexaazapentocyclo[16.5.2.0^2,6,0^7,12,0^21,25]pentacosane-1(24),7,9,11,18(25),19,22-heptaene-17-one-13,13,14,14-d4], the microsomal CLint at 1 μM came out at 56.5 µL/min/mg in data set [1] and 44.2 µL/min/mg in data set [2]. The figures for the half-life at 1 μM in data set [1] and in data set [2] were 24.5 min and 31.3 min, respectively.

With `[2H]C1([2H])c2ncc(F)cc2[C@@H]2CCCN2c2ccn3ncc(c3n2)C(=O)N[C@H](C)C1([2H])[2H]` [Compound L-1-b, (6S,15R)-9-fluoro-15-methyl-2,11,16,20,21,24-hexaazapentocyclo[16.5.2.0^2,6,0^7,12,0^21,25]pentacosane-1(24),7,9,11,18(25),19,22-heptaene-17-one-13,13,14,14-d4], the results for the microsomal CLint at 1 μM in data set [1] and in data set [2] were 49.8 µL/min/mg and 75.1 µL/min/mg, respectively. For the same compound, the half-life at 1 μM in data set [1] is 27.8 min; in data set [2], 18.5 min.

As a reminder, the IC50 is the concentration that inhibits the measured activity by half. The low end stands for inhibition by little substance, the high end for a need for much substance. As to `[2H]C1([2H])CCN2c3ccn4ncc(c4n3)C(=O)N[C@H](C)CCc3ncc(F)cc3[C@]21[2H]` [Compound L-2-a, (6R,15R)-9-fluoro-15-methyl-2,11,16,20,21,24-hexaazapentocyclo[16.5.2.0^2,6,0^7,12,0^21,25]pentacosane-1(24),7,9,11,18(25),19,22-heptaene-17-one-5,5,6-d3], the IC50 in data set [3] was determined as 2.51 nM. In data set [1], the microsomal CLint at 1 μM was 79.6 µL/min/mg and the half-life at 1 μM came to 17.4 min. Also, in data set [2], the microsomal CLint at 1 μM stood at 45.6 µL/min/mg and the half-life at 1 μM came to 30.4 min.

Consider `[2H]C1([2H])CCN2c3ccn4ncc(c4n3)C(=O)N[C@H](C)CCc3ncc(F)cc3[C@@]21[2H]` [Compound L-2-b, (6S,15R)-9-fluoro-15-methyl-2,11,16,20,21,24-hexaazapentocyclo[16.5.2.0^2,6,0^7,12,0^21,25]pentacosane-1(24),7,9,11,18(25),19,22-heptaene-17-one-5,5,6-d3], for which, in data set [1], the microsomal CLint at 1 μM was determined as 55.2 µL/min/mg and the half-life at 1 μM was 25.1 min. Moreover, in data set [2], the microsomal CLint at 1 μM amounted to 57.9 µL/min/mg and the half-life at 1 μM stood at 23.9 min.

On to `C[C@@H]1CCc2ncc(F)cc2C2CCCN2c2ccn3ncc(c3n2)C(=O)N1` (some centres unmarked) [Compound Φ, reference compound], for which the microsomal CLint at 1 μM is 94.3 µL/min/mg in data set [1] and 59.5 µL/min/mg in data set [2]. Also, the half-life at 1 μM worked out at 14.7 min in data set [1] and 23.3 min in data set [2].

The compound `C[C@@H]1CCc2ncc(F)cc2[C@H]2CCCN2c2ccn3ncc(c3n2)C(=O)N1` [Compound Φ-a, (6R,15R)-9-fluoro-15-methyl-2,11,16,20,21,24-hexaazapentocyclo[16.5.2.0^2,6,0^7,12,0^21,25]pentacosane-1(24),7,9,11,18(25),19,22-heptaene-17-one, reference compound] yielded an IC50 in data set [3] of 2.56 nM. Besides, in data set [1], the microsomal CLint at 1 μM stood at 108 µL/min/mg and the half-life at 1 μM turned out to be 12.9 min. In data set [2], the intrinsic clearance (microsomal CLint) at 1 μM amounted to 83.2 µL/min/mg and the half-life at 1 μM turned out to be 16.7 min.

Regarding `C[C@@H]1CCc2ncc(F)cc2[C@@H]2CCCN2c2ccn3ncc(c3n2)C(=O)N1` [Φ-b, reference compound], in data set [1], the microsomal CLint at 1 μM was 78.4 µL/min/mg and the half-life at 1 μM is 17.7 min. In data set [2], the microsomal CLint at 1 μM was found to be 79.2 µL/min/mg and the half-life at 1 μM came out at 17.5 min.
